In brackets after ≈: the same amount, converted by molar mass. Read-outs that look alike come from different tables or passages of the source.
Legend:
human (hACC2) = human (hACC2) (Homo sapiens, UniProt O00763); experiment: In vitro ACC inhibition assay (ADP-Glo), hACC2; type: biochemical; conditions: 5 nM ACC2, 20 μM ATP, 20 μM acetyl-CoA
Protocol: The detailed procedure is as follows. […] 10 μL ADP glo reagent was added. […] 20 μL kinase detection reagent was added.

C. albicans = experiment: Antifungal Activity Assay (broth microtiter MIC), C. albicans; type: cell-based, Candida albicans; conditions: Candida albicans, ATCC90028, 48 h
In short: (§1)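 CLSI M27-A3 microdilution; RPMI 1640+MOPS; 2.5×10^3 CFU/mL final inoculum; cultures from Sabouraud dextrose agar, 35° C overnight; compound working solution 128 μg/mL from 1 mg/mL DMSO stock; visual MIC at 48 h vs growth control.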

C. krusei = experiment: Antifungal Activity Assay (broth microtiter MIC), C. krusei; type: cell-based, Candida krusei; conditions: Pichia kudriavzevii, ATCC6258, 48 h
In short: as §1

C. parapsilosis = experiment: Antifungal Activity Assay (broth microtiter MIC), C. parapsilosis; type: cell-based, Candida parapsilosis; conditions: Lodderomyces parapsilosis, ATCC22019, 48 h
In short: as §1

[1] = tested on: Collectotrichum graminicola (Cg); experiment: Growth inhibition assay of fungal pathogens, Cg; type: cell-based; conditions: 48 h
In short: (§2)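 Read-out: OD600 plus visual rating at 24 and 48 h, blank (media + 2% DMSO) subtracted. Percent inhibition was derived at 48 h versus the 2% DMSO control. Spores were grown in 17% V8 broth with compound at 50/10/2 or 2/0.4/0.08 ppm final.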

Diplodia maydis (Dm) = experiment: Growth inhibition assay of fungal pathogens, Dm; type: cell-based; conditions: Stenocarpella maydis, 48 h
In short: as §2

[2] = tested on: Fusarium moniliforme (Fm); experiment: Growth inhibition assay of fungal pathogens, Fm; type: cell-based; conditions: for IC90: Fusarium verticillioides, 48 h, read-out: Concentration at 90% Inhibition Fm
In short: as §2

[3] = tested on: Fusarium virguliforme (Fv); experiment: Growth inhibition assay of fungal pathogens, Fv; type: cell-based; conditions: 48 h
In short: as §2

[4] = tested on: Phytophthora capsici (Pc); experiment: Growth inhibition assay of fungal pathogens, Pc; type: cell-based; conditions: 48 h
In short: as §2

Rhizoctonia solani (Rs) = experiment: Growth inhibition assay of fungal pathogens, Rs; type: cell-based; conditions: 48 h
Septoria tritici (St) = experiment: Growth inhibition assay of fungal pathogens, St; type: cell-based; conditions: Zymoseptoria tritici, 48 h
In short: as §2

[5] = Fusarium moniliforme, growth inhibition at 48 hours vs 2% DMSO control

Sequence of human (hACC2) (O00763 whole entry): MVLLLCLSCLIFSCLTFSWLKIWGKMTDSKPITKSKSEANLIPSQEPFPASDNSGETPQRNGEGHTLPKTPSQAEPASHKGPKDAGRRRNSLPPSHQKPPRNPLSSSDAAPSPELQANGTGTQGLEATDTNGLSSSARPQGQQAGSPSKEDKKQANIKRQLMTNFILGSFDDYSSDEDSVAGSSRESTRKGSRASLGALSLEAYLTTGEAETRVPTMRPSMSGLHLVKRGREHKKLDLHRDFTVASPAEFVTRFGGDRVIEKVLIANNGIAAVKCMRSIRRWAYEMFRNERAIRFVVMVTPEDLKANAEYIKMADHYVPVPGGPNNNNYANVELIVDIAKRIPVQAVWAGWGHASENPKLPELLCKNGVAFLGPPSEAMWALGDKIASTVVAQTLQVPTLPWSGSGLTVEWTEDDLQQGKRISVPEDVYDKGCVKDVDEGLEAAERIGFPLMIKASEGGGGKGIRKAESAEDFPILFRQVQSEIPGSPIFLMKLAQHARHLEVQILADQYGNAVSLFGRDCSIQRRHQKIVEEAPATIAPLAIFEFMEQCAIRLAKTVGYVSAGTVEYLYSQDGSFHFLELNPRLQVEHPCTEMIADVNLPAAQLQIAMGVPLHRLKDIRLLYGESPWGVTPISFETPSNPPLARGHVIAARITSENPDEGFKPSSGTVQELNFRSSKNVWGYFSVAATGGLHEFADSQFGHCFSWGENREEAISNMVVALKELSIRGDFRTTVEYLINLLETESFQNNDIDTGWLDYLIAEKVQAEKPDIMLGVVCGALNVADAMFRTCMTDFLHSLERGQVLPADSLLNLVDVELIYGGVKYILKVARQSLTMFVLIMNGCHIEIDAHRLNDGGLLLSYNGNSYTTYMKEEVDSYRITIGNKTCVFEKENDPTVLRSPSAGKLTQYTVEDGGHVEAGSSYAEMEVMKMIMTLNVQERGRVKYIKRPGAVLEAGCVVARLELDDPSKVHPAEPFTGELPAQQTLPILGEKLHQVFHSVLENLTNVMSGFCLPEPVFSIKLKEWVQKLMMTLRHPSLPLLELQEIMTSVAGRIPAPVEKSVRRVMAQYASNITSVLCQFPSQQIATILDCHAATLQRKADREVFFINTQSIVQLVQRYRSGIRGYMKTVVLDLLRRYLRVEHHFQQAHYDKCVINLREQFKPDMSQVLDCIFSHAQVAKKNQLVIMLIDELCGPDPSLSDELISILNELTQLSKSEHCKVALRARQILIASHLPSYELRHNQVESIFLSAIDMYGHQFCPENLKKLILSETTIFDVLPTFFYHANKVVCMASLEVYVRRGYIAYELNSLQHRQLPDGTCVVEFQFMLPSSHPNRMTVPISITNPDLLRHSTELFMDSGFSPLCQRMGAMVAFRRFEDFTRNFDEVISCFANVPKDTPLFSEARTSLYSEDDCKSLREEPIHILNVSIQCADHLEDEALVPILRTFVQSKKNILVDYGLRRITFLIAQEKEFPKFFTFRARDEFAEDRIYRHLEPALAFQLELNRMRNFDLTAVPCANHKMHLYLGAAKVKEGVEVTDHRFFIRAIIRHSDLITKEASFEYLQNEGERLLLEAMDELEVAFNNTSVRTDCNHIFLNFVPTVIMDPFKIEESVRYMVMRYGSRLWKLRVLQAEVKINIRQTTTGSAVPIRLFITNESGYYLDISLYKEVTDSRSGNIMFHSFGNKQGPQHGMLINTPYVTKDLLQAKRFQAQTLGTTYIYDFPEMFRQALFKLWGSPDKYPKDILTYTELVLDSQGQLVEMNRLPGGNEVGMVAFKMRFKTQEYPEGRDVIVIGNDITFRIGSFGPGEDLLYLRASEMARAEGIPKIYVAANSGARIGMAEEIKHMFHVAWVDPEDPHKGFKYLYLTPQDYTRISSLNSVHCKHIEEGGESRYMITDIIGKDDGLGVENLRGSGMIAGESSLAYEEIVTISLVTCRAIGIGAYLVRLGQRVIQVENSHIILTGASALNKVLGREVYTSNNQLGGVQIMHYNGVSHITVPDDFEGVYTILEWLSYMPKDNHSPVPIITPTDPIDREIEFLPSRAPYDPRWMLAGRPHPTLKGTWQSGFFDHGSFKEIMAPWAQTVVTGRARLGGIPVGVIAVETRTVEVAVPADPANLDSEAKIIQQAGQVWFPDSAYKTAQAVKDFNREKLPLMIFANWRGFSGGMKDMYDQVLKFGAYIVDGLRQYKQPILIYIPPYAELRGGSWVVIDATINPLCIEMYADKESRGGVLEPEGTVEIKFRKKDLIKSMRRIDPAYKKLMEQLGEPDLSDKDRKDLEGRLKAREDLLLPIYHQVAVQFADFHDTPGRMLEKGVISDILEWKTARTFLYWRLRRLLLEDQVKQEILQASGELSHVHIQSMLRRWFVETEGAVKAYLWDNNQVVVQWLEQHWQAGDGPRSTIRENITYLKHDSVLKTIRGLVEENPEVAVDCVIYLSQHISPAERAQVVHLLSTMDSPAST

In the case of `COc1ccc(F)cc1[C@H](Cn1c(=O)n(C(C)(C)C(=O)N2CCCC2)c(=O)c2c(C)c(-n3nccn3)sc21)OCCN(C)C` [Compound I-75, (R)-1-(2-(2-(dimethylamino)ethoxy)-2-(5-fluoro-2-methoxyphenyl)ethyl)-5-methyl-3-(2-methyl-1-oxo-1-(pyrrolidin-1-yl)propan-2-yl)-6-(2H-1,2,3-triazol-2-yl)thieno[2,3-d]pyrimidine-2,4(1H,3H)-dione], the IC50 (human (hACC2); Table 2a) is reported as > 40 nM, the IC50 (human (hACC2); Table 2b, additional results) is reported as > 40 nM and the MIC (C. albicans; Table 3a, ATCC 90028, 3 replicates, MIC recorded at 48 h, read-out: MIC, C. albicans ATCC 90028) is reported as 2.1 to 4 µg/mL (≈ 3.35 to 6.37 µM). For the same compound, the MIC (C. albicans; Table 3b (additional results), ATCC 90028, 3 replicates, MIC recorded at 48 h, read-out: MIC, C. albicans ATCC 90028) was 2.01 to 4 µg/mL (≈ 3.2 to 6.37 µM), the MIC (C. krusei; Table 3a, ATCC 6258, 3 replicates, MIC recorded at 48 h, read-out: MIC, C. krusei ATCC 6258) was 2.1 to 4 µg/mL (≈ 3.35 to 6.37 µM) and the MIC (C. krusei; Table 3b (additional results), ATCC 6258, 3 replicates, MIC recorded at 48 h, read-out: MIC, C. krusei ATCC 6258) was 2.01 to 4 µg/mL (≈ 3.2 to 6.37 µM). For the same compound, the MIC (C. parapsilosis; Table 3a, ATCC 22019, 3 replicates, MIC recorded at 48 h, read-out: MIC, C. parapsilosis ATCC 22019) was 2.1 to 4 µg/mL (≈ 3.35 to 6.37 µM), the MIC (C. parapsilosis; Table 3b (additional results), ATCC 22019, 3 replicates, MIC recorded at 48 h, read-out: MIC, C. parapsilosis ATCC 22019) was 1.01 to 2 µg/mL (≈ 1.61 to 3.19 µM) and the IC90 ([1]; Collectotrichum graminicola, growth inhibition at 48 hours vs 2% DMSO control, read-out: Concentration at 90% Inhibition Cg) was > 50 µg/mL. The IC90 ([1]; Collectotrichum graminicola, growth inhibition vs 2% DMSO control at 48 hours, read-out: Concentration at 90% Inhibition Cg) was > 50 µg/mL, the IC90 (Diplodia maydis (Dm); Diplodia maydis, growth inhibition at 48 hours vs 2% DMSO control, read-out: Concentration at 90% Inhibition Dm) was > 50 µg/mL and the IC90 (Diplodia maydis (Dm); Diplodia maydis, growth inhibition vs 2% DMSO control at 48 hours, read-out: Concentration at 90% Inhibition Dm) was > 50 µg/mL. The IC90 [2, 5] was > 50 µg/mL, the IC90 ([2]; Fusarium moniliforme, growth inhibition vs 2% DMSO control at 48 hours) was > 50 µg/mL and the IC90 ([3]; growth inhibition at 48 hours vs 2% DMSO control, read-out: Concentration at 90% Inhibition Fv) was > 50 µg/mL. For the same compound, the IC90 ([3]; growth inhibition vs 2% DMSO control at 48 hours, read-out: Concentration at 90% Inhibition Fv) was > 50 µg/mL, the IC90 ([4]; growth inhibition at 48 hours vs 2% DMSO control, read-out: Concentration at 90% Inhibition Pc) was > 50 µg/mL and the IC90 ([4]; growth inhibition vs 2% DMSO control at 48 hours, read-out: Concentration at 90% Inhibition Pc) was > 50 µg/mL. The IC90 (Rhizoctonia solani (Rs); mycelial plugs, growth inhibition at 48 hours vs 2% DMSO control, read-out: Concentration at 90% Inhibition Rs) was > 50 µg/mL, the IC90 (Rhizoctonia solani (Rs); mycelial plugs, growth inhibition vs 2% DMSO control at 48 hours, read-out: Concentration at 90% Inhibition Rs) was > 50 µg/mL and the IC90 (Septoria tritici (St); Septoria tritici, growth inhibition at 48 hours vs 2% DMSO control, read-out: Concentration at 90% Inhibition St) was > 50 µg/mL. For the same compound, the IC90 (Septoria tritici (St); Septoria tritici, growth inhibition vs 2% DMSO control at 48 hours, read-out: Concentration at 90% Inhibition St) was > 50 µg/mL.

`COc1ccc(F)cc1[C@H](Cn1c(=O)n(C(C)(C)C(=O)NC(C)C)c(=O)c2c(C)c(-n3nccn3)sc21)OCCN(C)C` [Compound I-76, (R)-2-(1-(2-(2-(dimethylamino)ethoxy)-2-(5-fluoro-2-methoxyphenyl)ethyl)-5-methyl-2,4-dioxo-6-(2H-1,2,3-triazol-2-yl)-1,4-dihydro-thieno[2,3-d]pyrimidin-3(2H)-yl)-N-isopropyl-2-methylpropanamide] was tested, and the IC50 (human (hACC2); Table 2a) was > 40 nM, the IC50 (human (hACC2); Table 2b, additional results) was > 40 nM and the MIC (C. albicans; read-out: MIC, C. albicans ATCC 90028, Table 3a, 3 replicates, MIC recorded at 48 h) was 2.1 to 4 µg/mL (≈ 3.41 to 6.5 µM). For the same compound, the MIC (C. albicans; read-out: MIC, C. albicans ATCC 90028, Table 3b (additional results), 3 replicates, MIC recorded at 48 h) was 1.01 to 2 µg/mL (≈ 1.64 to 3.25 µM), the MIC (C. krusei; read-out: MIC, C. krusei ATCC 6258, Table 3a, 3 replicates, MIC recorded at 48 h) was 2.1 to 4 µg/mL (≈ 3.41 to 6.5 µM) and the MIC (C. krusei; read-out: MIC, C. krusei ATCC 6258, Table 3b (additional results), 3 replicates, MIC recorded at 48 h) was 0.25 to 1 µg/mL (≈ 0.406 to 1.62 µM). For the same compound, the MIC (C. parapsilosis; read-out: MIC, C. parapsilosis ATCC 22019, Table 3a, 3 replicates, MIC recorded at 48 h) was 2.1 to 4 µg/mL (≈ 3.41 to 6.5 µM), the MIC (C. parapsilosis; read-out: MIC, C. parapsilosis ATCC 22019, Table 3b (additional results), 3 replicates, MIC recorded at 48 h) was 0.25 to 1 µg/mL (≈ 0.406 to 1.62 µM) and the IC90 ([1]; read-out: Concentration at 90% Inhibition Cg, Collectotrichum graminicola, growth inhibition at 48 hours vs 2% DMSO control) was > 50 µg/mL. For the same compound, the IC90 ([1]; read-out: Concentration at 90% Inhibition Cg, Collectotrichum graminicola, growth inhibition vs 2% DMSO control at 48 hours) was > 50 µg/mL, the IC90 (Diplodia maydis (Dm); read-out: Concentration at 90% Inhibition Dm, Diplodia maydis, growth inhibition at 48 hours vs 2% DMSO control) was > 50 µg/mL and the IC90 (Diplodia maydis (Dm); read-out: Concentration at 90% Inhibition Dm, Diplodia maydis, growth inhibition vs 2% DMSO control at 48 hours) was > 50 µg/mL. For the same compound, the “Concentration at 90% Inhibition Fm” value [2, 5] was “D (compound concentration of >50 ppm at 90% inhibition of fungal pathogens)”, the IC90 [2] was > 50 µg/mL and the IC90 ([3]; read-out: Concentration at 90% Inhibition Fv, Fusarium virguliforme, growth inhibition at 48 hours vs 2% DMSO control) was > 50 µg/mL. The IC90 ([3]; read-out: Concentration at 90% Inhibition Fv, Fusarium virguliforme, growth inhibition vs 2% DMSO control at 48 hours) was > 50 µg/mL, the IC90 ([4]; read-out: Concentration at 90% Inhibition Pc, Phytophthora capsici, growth inhibition at 48 hours vs 2% DMSO control) was > 50 µg/mL and the IC90 ([4]; read-out: Concentration at 90% Inhibition Pc, Phytophthora capsici, growth inhibition vs 2% DMSO control at 48 hours) was > 50 µg/mL. The IC90 (Rhizoctonia solani (Rs); read-out: Concentration at 90% Inhibition Rs, Rhizoctonia solani, mycelial plugs, growth inhibition at 48 hours vs 2% DMSO control) was 10 µg/mL (≈ 16.2 µM), the IC90 (Rhizoctonia solani (Rs); read-out: Concentration at 90% Inhibition Rs, Rhizoctonia solani, mycelial plugs, growth inhibition vs 2% DMSO control at 48 hours) was > 50 µg/mL and the IC90 (Septoria tritici (St); read-out: Concentration at 90% Inhibition St, Septoria tritici, growth inhibition at 48 hours vs 2% DMSO control) was > 50 µg/mL. For the same compound, the IC90 (Septoria tritici (St); read-out: Concentration at 90% Inhibition St, Septoria tritici, growth inhibition vs 2% DMSO control at 48 hours) was > 50 µg/mL.

From patent US10800791B2, “Triazole ACC inhibitors and uses thereof” (Gilead Apollo, LLC, priority 2015, dated 2020)
